# In patent US6706663B2, “Herbicidal 3-heterocyclic substituted benzisothiazole and benzisoxazole compounds” (Wyeth, priority 2000, dated 2004):
# Key:
# [1] = test system: ABUTH (Abutilon theophrasti); test: Preemergence herbicidal evaluation; type: in vivo, Medic.; conditions: preemergence, rated 4-5 weeks after treatment
# [2] = test system: AMBEL (Ambrosia artemisifolia); test: Preemergence herbicidal evaluation; type: in vivo, L.; conditions: preemergence, rated 4-5 weeks after treatment
# How it was run: (§1)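 Visual 0-9 rating versus untreated control, taken four to five weeks post-treatment, scoring stand, vigor, malformation, size, chlorosis and overall appearance. Compound applied as aqueous acetone spray to freshly seeded soil cups, then kept under standard greenhouse care.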
# [3] = test system: CHEAL (Chenopodium album); test: Preemergence herbicidal evaluation; type: in vivo, L.; conditions: preemergence, rated 4-5 weeks after treatment
# How it was run: as §1
# GALAP (Galium aparine) [4] = test: Preemergence herbicidal evaluation; type: in vivo; conditions: preemergence, rated 4-5 weeks after treatment
# How it was run: as §1
# IPOSS (Ipomoea Spp.) [5] = test: Preemergence herbicidal evaluation; type: in vivo; conditions: rated 4-5 weeks after treatment
# From the text: (§2) Results of herbicide evaluation are expressed on a rating scale (0-9). The scale is based upon a visual observation of plant stand, vigor, malformation, size, chlorosis and overall plant appearance as compared with a control.
# The preemergence herbicidal activity of the test compounds of the present invention is exemplified by the following tests in which the seeds of a variety of monocotyledonous and dicotyledonous plants are separately mixed with potting soil and planted on top of approximately one inch of soil in separate pint cups. After planting, the cups are sprayed with the selected aqueous acetone solution containing test compound in sufficient quantity to provide the equivalent of about […] per hectare of test compound per cup. The treated cups are then placed on greenhouse benches, watered and cared for in accordance with conventional greenhouse procedures. From four to five weeks after treatment, the tests are terminated and each cup is examined and rated according to the rating system provided in Example 87. The plant species used and the compounds evaluated are the same as those shown in Example 87.
# [6] = test system: ECHCG (Echinochloa crus-galli); test: Preemergence herbicidal evaluation; type: in vivo, (L.) Beau; conditions: preemergence, rated 4-5 weeks after treatment
# How it was run: as §1
# SETVI (Setaria viridis) [7] = test: Preemergence herbicidal evaluation; type: in vivo, (L.) Beau; conditions: preemergence, rated 4-5 weeks after treatment
# How it was run: as §1
# [8] = test system: GLXMAW (Soybean, Williams); test: Preemergence herbicidal evaluation; type: in vivo, Glycine max, (L.) Merr. cv Williams; conditions: preemergence, rated 4-5 weeks after treatment
# ORYSAT (Rice, Tebonnet) [9] = test: Preemergence herbicidal evaluation; type: in vivo, Oryza sativa, (L.) Tebonnet; conditions: preemergence, rated 4-5 weeks after treatment
# [10] = test system: TRZAWR (Wheat, Winter, cv Riband); test: Preemergence herbicidal evaluation; type: in vivo, Triticum aestivum; conditions: preemergence, rated 4-5 weeks after treatment
# How it was run: as §1
# ZEAMX (Corn, Field) [11] = test: Preemergence herbicidal evaluation; type: in vivo, Zea mays, L.; conditions: preemergence, rated 4-5 weeks after treatment
# [12] = test system: ABUTH (Abutilon theophrasti); test: Postemergence herbicidal evaluation; type: in vivo, Medic.; conditions: postemergence
# How it was run: (§3)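 Visual 0–9 injury scores versus control plants, covering stand, vigour, malformation, size, chlorosis and general appearance, taken four to five weeks post-spray and averaged over replicate tests. Plants were sprayed at roughly two weeks old and held on greenhouse benches.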
# [13] = test system: AMBEL (Ambrosia artemisifolia); test: Postemergence herbicidal evaluation; type: in vivo, L.; conditions: postemergence
# How it was run: as §3
# [14] = test system: CHEAL (Chenopodium album); test: Postemergence herbicidal evaluation; type: in vivo, L.; conditions: postemergence
# How it was run: as §3
# [15] = test system: IPOHE (Ipomoea hederacea); test: Postemergence herbicidal evaluation; type: in vivo, (L.) Jacq.; conditions: postemergence
# How it was run: as §3
# [16] = test system: ECHCG (Echinochloa crus-galli); test: Postemergence herbicidal evaluation; type: in vivo, (L.) Beau; conditions: postemergence
# How it was run: as §3
# SETVI (Setaria viridis) [17] = test: Postemergence herbicidal evaluation; type: in vivo, (L.) Beau; conditions: postemergence
# How it was run: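 Visual injury score (0-9: stand, vigor, malformation, size, chlorosis, overall appearance vs untreated control) taken four to five weeks post-spray. Two-week-old seedlings received about 0.0040 to 1.000 kg/ha active compound in acetone/water with 0.5% TWEEN 20.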
# GLXMA (Soybean) = test: Postemergence herbicidal evaluation; type: in vivo, Glycine max, (L.) Merr.; conditions: postemergence
# Experimental: (§4) In the tests, seedling plants are grown in jiffy flats for about two weeks. The test compounds are dispersed in 50/50 acetone/water mixtures containing 0.5% TWEEN® 20, a polyoxyethylene sorbitan monolaurate surfactant of Atlas Chemical Industries, in sufficient quantities to provide the equivalent of about 0.0040 kg to 1.000 kg per hectare of active compound when applied to the plants through a spray nozzle operating at 40 psi for a predetermined time. After spraying, the plants are placed on greenhouse benches and are cared for in accordance with conventional greenhouse procedures. From four to five weeks after treatment, the seedling plants are examined and rated according to the rating system set forth below. Where more than one test is involved for a given compound, the data are averaged.
# as §2
# ZEAMX (Corn, Field) [18] = test: Postemergence herbicidal evaluation; type: in vivo, Zea mays, L.; conditions: postemergence
# How it was run: as §3
# GALAP (Galium aparine) [19] = test: Postemergence herbicidal evaluation; type: in vivo; conditions: postemergence, rate 0.3000 kg/ha
# How it was run: as §3
# IPOSS (Ipomoea Spp.) [20] = test: Postemergence herbicidal evaluation; type: in vivo; conditions: rate 0.3000 kg/ha
# Experimental: as §4, §2
# [21] = test system: GLXMAW (Soybean, Williams); test: Postemergence herbicidal evaluation; type: in vivo, Glycine max, (L.) Merr. cv Williams; conditions: postemergence, rate 0.3000 kg/ha
# How it was run: as §3
# ORYSAT (Rice, Tebonnet) [22] = test: Postemergence herbicidal evaluation; type: in vivo, Oryza sativa, (L.) Tebonnet; conditions: postemergence, rate 0.3000 kg/ha
# How it was run: as §3
# [23] = test system: TRZAWR (Wheat, Winter, cv Riband); test: Postemergence herbicidal evaluation; type: in vivo, Triticum aestivum; conditions: postemergence, rate 0.3000 kg/ha
# How it was run: as §3
smiles,measurement,setting,value
"Cn1c(C(F)(F)F)cc(=O)n(-c2ccc3snc(C4(O)N=C(c5ccccc5)NC4=O)c3c2)c1=O (stereo not drawn) [Compound 94, 3-[3-(4-hydroxy-5-oxo-2-phenyl-2-imidazolin-4-yl)-1,2-benzisothiazol-5-yl]-1-methyl-6-(trifluoromethyl)uracil]",Preemergence herbicidal rating ABUTH,[1]; rate 1.0000 kg/ha,7.0
same,Preemergence herbicidal rating AMBEL,[2]; rate 1.0000 kg/ha,5.0
same,Preemergence herbicidal rating CHEAL,[3]; rate 1.0000 kg/ha,8.0
same,Preemergence herbicidal rating GALAP,GALAP (Galium aparine) [4]; rate 1.0000 kg/ha,8.0
same,Preemergence herbicidal rating IPOSS,IPOSS (Ipomoea Spp.) [5]; rate 1.0000 kg/ha,7.0
same,Preemergence herbicidal rating ECHCG,[6]; rate 1.0000 kg/ha,2.0
same,Preemergence herbicidal rating SETVI,SETVI (Setaria viridis) [7]; rate 1.0000 kg/ha,5.0
same,Preemergence herbicidal rating GLXMAW,[8]; rate 1.0000 kg/ha,5.0
same,Preemergence herbicidal rating ORYSAT,"ORYSAT (Rice, Tebonnet) [9]; rate 1.0000 kg/ha",6.0
same,Preemergence herbicidal rating TRZAWR,[10]; rate 1.0000 kg/ha,5.0
same,Preemergence herbicidal rating ZEAMX,"ZEAMX (Corn, Field) [11]; rate 1.0000 kg/ha",3.0
"Cn1c(C(F)(F)F)cc(=O)n(-c2ccc3snc(C4(O)N=C(C(C)(C)C)NC4=O)c3c2)c1=O (stereo not drawn) [Compound 95, 3-[3-(2-tert-butyl-4-hydroxy-5-oxo-2-imidazolin-4-yl)-1,2-benzisothiazol-5-yl]-1-methyl-6-(trifluoromethyl)uracil]",ABUTH herbicidal rating,[12]; rate 0.0320 kg/ha,9.0
same,ABUTH herbicidal rating,[12]; rate 0.0620 kg/ha,9.0
same,AMBEL herbicidal rating,[13]; rate 0.0320 kg/ha,4.0
same,AMBEL herbicidal rating,[13]; rate 0.0620 kg/ha,8.0
same,CHEAL herbicidal rating,[14]; rate 0.0320 kg/ha,8.0
same,CHEAL herbicidal rating,[14]; rate 0.0620 kg/ha,9.0
same,IPOHE herbicidal rating,[15]; rate 0.0320 kg/ha,8.0
same,IPOHE herbicidal rating,[15]; rate 0.0620 kg/ha,9.0
same,ECHCG herbicidal rating,[16]; rate 0.0320 kg/ha,2.0
same,ECHCG herbicidal rating,[16]; rate 0.0620 kg/ha,3.0
same,SETVI herbicidal rating,SETVI (Setaria viridis) [17]; rate 0.0320 kg/ha,4.0
same,SETVI herbicidal rating,SETVI (Setaria viridis) [17]; rate 0.0620 kg/ha,7.0
same,GLXMA herbicidal rating,GLXMA (Soybean); rate 0.0320 kg/ha,8.0
same,GLXMA herbicidal rating,GLXMA (Soybean); rate 0.0620 kg/ha,8.0
same,ZEAMX herbicidal rating,"ZEAMX (Corn, Field) [18]; rate 0.0320 kg/ha",3.5
same,ZEAMX herbicidal rating,"ZEAMX (Corn, Field) [18]; rate 0.0620 kg/ha",3.5
Cn1c(C(F)(F)F)cc(=O)n(-c2ccc3snc(C4(O)C(=O)NC(=N)C4(C)C)c3c2)c1=O (stereo not drawn) [Compound 96],ABUTH herbicidal rating,[12]; rate 0.0320 kg/ha,3.0
same,ABUTH herbicidal rating,[12]; rate 0.0620 kg/ha,4.0
same,ABUTH herbicidal rating,[12]; rate 0.3000 kg/ha,9.0
same,AMBEL herbicidal rating,[13]; rate 0.0320 kg/ha,4.0
same,AMBEL herbicidal rating,[13]; rate 0.0620 kg/ha,5.0
same,AMBEL herbicidal rating,[13]; rate 0.3000 kg/ha,6.0
same,CHEAL herbicidal rating,[14]; rate 0.0320 kg/ha,3.0
same,CHEAL herbicidal rating,[14]; rate 0.0620 kg/ha,4.0
same,CHEAL herbicidal rating,[14]; rate 0.3000 kg/ha,9.0
same,GALAP herbicidal rating,GALAP (Galium aparine) [19],0.0
same,IPOHE herbicidal rating,[15]; rate 0.0320 kg/ha,3.0
same,IPOHE herbicidal rating,[15]; rate 0.0620 kg/ha,6.0
same,IPOSS herbicidal rating,IPOSS (Ipomoea Spp.) [20],3.0
same,ECHCG herbicidal rating,[16]; rate 0.0320 kg/ha,1.0
same,ECHCG herbicidal rating,[16]; rate 0.0620 kg/ha,2.0
same,ECHCG herbicidal rating,[16]; rate 0.3000 kg/ha,0.0
same,SETVI herbicidal rating,SETVI (Setaria viridis) [17]; rate 0.0320 kg/ha,2.0
same,SETVI herbicidal rating,SETVI (Setaria viridis) [17]; rate 0.0620 kg/ha,2.0
same,SETVI herbicidal rating,SETVI (Setaria viridis) [17]; rate 0.3000 kg/ha,4.0
same,GLXMAW herbicidal rating,[21],5.0
same,GLXMA herbicidal rating,GLXMA (Soybean); rate 0.0320 kg/ha,5.5
same,GLXMA herbicidal rating,GLXMA (Soybean); rate 0.0620 kg/ha,6.0
same,ORYSAT herbicidal rating,"ORYSAT (Rice, Tebonnet) [22]",0.0
same,TRZAWR herbicidal rating,[23],0.0
same,ZEAMX herbicidal rating,"ZEAMX (Corn, Field) [18]; rate 0.0320 kg/ha",3.0
same,ZEAMX herbicidal rating,"ZEAMX (Corn, Field) [18]; rate 0.0620 kg/ha",3.0
same,ZEAMX herbicidal rating,"ZEAMX (Corn, Field) [18]; rate 0.3000 kg/ha",2.0
same,Preemergence herbicidal rating ABUTH,[1]; rate 0.3000 kg/ha,6.0
same,Preemergence herbicidal rating AMBEL,[2]; rate 0.3000 kg/ha,0.0
same,Preemergence herbicidal rating CHEAL,[3]; rate 0.3000 kg/ha,7.0
same,Preemergence herbicidal rating GALAP,GALAP (Galium aparine) [4]; rate 0.3000 kg/ha,6.0
same,Preemergence herbicidal rating IPOSS,IPOSS (Ipomoea Spp.) [5]; rate 0.3000 kg/ha,4.0
same,Preemergence herbicidal rating ECHCG,[6]; rate 0.3000 kg/ha,0.0
same,Preemergence herbicidal rating SETVI,SETVI (Setaria viridis) [7]; rate 0.3000 kg/ha,0.0
same,Preemergence herbicidal rating GLXMAW,[8]; rate 0.3000 kg/ha,0.0
same,Preemergence herbicidal rating ORYSAT,"ORYSAT (Rice, Tebonnet) [9]; rate 0.3000 kg/ha",0.0
same,Preemergence herbicidal rating TRZAWR,[10]; rate 0.3000 kg/ha,0.0
same,Preemergence herbicidal rating ZEAMX,"ZEAMX (Corn, Field) [11]; rate 0.3000 kg/ha",0.0
"CCN=C1NC(=O)C(OC)(c2nsc3ccc(-n4c(=O)cc(C(F)(F)F)n(C)c4=O)cc23)N1 (stereo not drawn) [Compound 98, 3-[3[4-methoxy-2-(ethylimino)-5-oxo-4-imidazolidinyl]-1,2-benzisothiazol-5-yl]-1-methyl-6-(trifluoromethyl)uracil]",ABUTH herbicidal rating,[12]; rate 0.0320 kg/ha,9.0
same,ABUTH herbicidal rating,[12]; rate 0.0620 kg/ha,9.0
same,AMBEL herbicidal rating,[13]; rate 0.0320 kg/ha,8.0
same,AMBEL herbicidal rating,[13]; rate 0.0620 kg/ha,8.0
same,CHEAL herbicidal rating,[14]; rate 0.0320 kg/ha,6.0
same,CHEAL herbicidal rating,[14]; rate 0.0620 kg/ha,8.0
same,IPOHE herbicidal rating,[15]; rate 0.0320 kg/ha,9.0
same,IPOHE herbicidal rating,[15]; rate 0.0620 kg/ha,8.0
same,ECHCG herbicidal rating,[16]; rate 0.0320 kg/ha,2.0
same,ECHCG herbicidal rating,[16]; rate 0.0620 kg/ha,2.0
same,SETVI herbicidal rating,SETVI (Setaria viridis) [17]; rate 0.0320 kg/ha,3.0
same,SETVI herbicidal rating,SETVI (Setaria viridis) [17]; rate 0.0620 kg/ha,3.0
same,GLXMA herbicidal rating,GLXMA (Soybean); rate 0.0320 kg/ha,8.0
same,GLXMA herbicidal rating,GLXMA (Soybean); rate 0.0620 kg/ha,8.0
same,ZEAMX herbicidal rating,"ZEAMX (Corn, Field) [18]; rate 0.0320 kg/ha",3.5
same,ZEAMX herbicidal rating,"ZEAMX (Corn, Field) [18]; rate 0.0620 kg/ha",3.5
